Measurements: patent publication US8999956B2, “N-[(het)arylalkyl)] pyrazole(thio)carboxamides and their heterosubstituted analogues” (Bayer Intellectual Property GmbH, priority 2010, dated 2015)

What was measured:
[1] = test system: Alternaria solani; assay: In vivo preventive test on Alternaria solani (tomato); details: 500 ppm of active ingredient, evaluated 7 days after inoculation
Procedure: (§1) Solvent: 49 parts by weight of N,N-dimethylformamide Emulsifier: 1 part by weight of Alkylarylpolyglycolether To produce a suitable preparation of active compound, 1 part by weight of active compound is mixed with the stated amounts of solvent and emulsifier, and the concentrate is diluted with water to the desired concentration. To test for preventive activity, young plants are sprayed with the preparation of active compound at the stated rate of application. One day after this treatment, the plants are inoculated with an aqueous spore suspension of Alternaria solani.

[2] = test system: aflatoxines produced by Aspergillus parasiticus; assay: microbe, parasite or virus in culture; assay type: cell-based
[3] = test system: Pyrenophora teres; assay: In vivo preventive test on Pyrenophora teres (barley); details: 500 ppm of active ingredient, evaluated 7-9 days after inoculation
Procedure: as §1, with “alkylaryl polyglycol ether” for “Alkylarylpolyglycolether”, “Pyrenophora teres.” for “Alternaria solani.”

[4] = log P by HPLC on reversed-phase column (EEC Directive 79/831 Annex V.A8); assay type: physicochemical
Procedure: In table 1, the log P values were determined in accordance with EEC Directive 79/831 Annex V.A8 by HPLC (High Performance Liquid Chromatography) on a reversed-phase column (C18), using the method described below: Temperature: 40° C.; […]

[5] = test system: Aspergillus parasiticus; assay: microbe, parasite or virus in culture; assay type: cell-based
[6] = test system: Puccinia triticina; assay: In vivo preventive test on Puccinia triticina (wheat); details: for pest or weed control at 500 ppm: Puccinia triticina, 192 h, read-out: Efficacy
[7] = Table K, 500 ppm of active ingredient, evaluated 8 days after inoculation
[8] = 500 ppm of active ingredient, evaluated 8 days after inoculation
[9] = Table K6, dose 500 ppm, comparison with des-fluoro analogues

Compound | Efficacy [1] | % Inhibition of Aflatoxin at 50 μM [2] | Efficacy [3] | logP [4] | % Inhibition of fungal growth at 50 μM [5] | Efficacy [6, 7] | Efficacy [6, 8] | Efficacy [6, 9] | pest or weed control at 500 ppm [6, 9]
CC(COc1ccc(Cl)cc1Cl)NC(=O)c1c(C(F)F)nn(C)c1F (stereo not drawn) [Example 189] | 90% | 100% | 100% | 3.58 | 94% | – | – | – | –
CC(COc1ccc(Cl)cc1Cl)NC(=O)c1c(C(F)F)nn(C)c1Cl (stereo not drawn) [Example 190] | 90% | 88% | 95% | 3.76 | 77% | – | – | – | –
CC(CSc1ccc(Cl)cc1Cl)NC(=O)c1c(C(F)F)nn(C)c1F (stereo not drawn) [Example 191] | 95% | 100% | 100% | 3.76 | 100% | – | – | – | –
CC(CSc1ccc(Cl)cc1Cl)NC(=O)c1c(C(F)F)nn(C)c1Cl (stereo not drawn) [Example 192] | 95% | 100% | 100% | 4.01 | 91% | – | – | – | –
Cn1nc(C(F)F)c(C(=O)NC(COc2ccc(Cl)cc2Cl)C2CC2)c1F (stereo not drawn) [Example 193] | 95% | 100% | 94% | 3.92 | 92% | – | – | – | –
CC(CCc1c(Cl)cc(Cl)cc1Cl)N(C(=O)c1c(C(F)F)nn(C)c1Cl)C1CC1 (stereo not drawn) [Example 214] | 80% | 100% | 100% | 4.31 | 93% | – | – | – | –
CC(CCc1ccccc1C(F)(F)F)N(C(=O)c1c(C(F)F)nn(C)c1Cl)C1CC1 (stereo not drawn) [Example 220] | 95% | – | 100% | 4.26 | – | 90% | – | – | –
CCC(COc1cccc2ccccc12)NC(=O)c1c(C(F)F)nn(C)c1F (stereo not drawn) [Example 222] | 90% | 91% | 90% | 3.71 | 78% | – | – | – | –
Cn1nc(C(F)F)c(C(=O)NC2CCCCC2Oc2ccccc2)c1Cl (stereo not drawn) [Example 246] | – | – | – | 3.76 | – | 95% | – | – | –
Cc1cccc(OC2CCCC2NC(=O)c2c(C(F)F)nn(C)c2F)c1 (stereo not drawn) [Example 259] | 90% | 97% | 78% | 3.52 | 82% | – | – | – | –
Cn1nc(C(F)F)c(C(=O)N(C[Si](C)(C)Cc2ccc(Cl)cc2Cl)C2CC2)c1Cl [Example 297] | 100% | 100% | 100% | 5.19 | 85% | – | – | – | –
CCC(C)C(C)N(C(=O)c1c(C(F)F)nn(C)c1Cl)C1CC1 (stereo not drawn) [Example 303] | 80% | 100% | 100% | 3.52 | 90% | – | – | – | –
CCC1CCCCC1CNC(=O)c1c(C(F)F)nn(C)c1F (stereo not drawn) [Example 364] | 95% | 99% | 80% | 3.49 | 81% | – | – | – | –
Cn1nc(C(F)F)c(C(=O)NC2CCCCC2C2CCCCC2)c1F (stereo not drawn) [Example 374] | – | – | – | 4.34 | – | 100% | total protection | 100% | –
Cc1nn(C)c(F)c1C(=O)NC1CCCCC1C1CCCCC1 (stereo not drawn) [compound CMP4, N-[1,1′-bi(cyclohexyl)-2-yl]-5-fluoro-1,3-dimethyl-1H-pyrazole-4-carboxamide, reference compound] | – | – | – | – | – | – | no protection | – | 0%
Cn1cc(C(=O)NC2CCCCC2C2CCCCC2)c(C(F)F)n1 (stereo not drawn) [compound CMP5, N-[1,1′-bi(cyclohexyl)-2-yl]-3-(difluoromethyl)-1-methyl-1H-pyrazole-4-carboxamide, reference compound] | – | – | – | – | – | – | no protection | – | 0%
